Source: US9902736B2, “1-oxo/acylation-14-acylated oridonin derivative, preparation method therefor and application thereof” (HANGZHOU BENSHENG PHARMACEUTICAL CO., LTD., priority 2012, dated 2018)
In brackets after ≈: the same amount, converted by molar mass.

What follows are compounds tested on RPMI 8226 (assay: Multiple myeloma cell growth inhibition, MTT, 72 h). Details: Homo sapiens.
Type: cell-based
Description: Multiple myeloma cell lines: RPMI8226 (multiple myeloma), purchased from Fuxiang Bio-tech Co. Ltd., Shanghai, China.
(§1) 6000 well-growing cells were obtained and inoculated into wells of a 96-well cell culture plate. […] On the next day, the 1-oxo/acylated-14-acylated oridonin derivatives of different concentrations were added and mixed uniformly. The plate was placed in a carbon dioxide cell incubator (5% CO2) at 37° C. and incubated for 72 hours. Then the viable cell concentration was determined by MTT method.

Row | IC50 [µg/mL] | IC90 [µg/mL] | Compound
1 | 1.7 (≈ 2.58 µM) | 3.73 (≈ 5.66 µM) | C=C1C(=O)[C@]23[C@H](OC(=O)C4CCN(S(=O)(=O)c5cccc([N+](=O)[O-])c5)CC4)[C@H]1CC[C@H]2[C@@]12CO[C@@]3(O)[C@@H](O)[C@@H]1C(C)(C)CCC2=O [BS-OR-037]

These compounds were tested on NB4 (assay: Leukemia cell growth inhibition, MTT, 72 h). Details: Homo sapiens, NB-4; 72 h, MTT.
Type: cell-based, human
From the text: (§2) Leukemia cell lines: leukemia cell lines: K562/adr (drug-resistant, chronic myeloid leukemia, CML), NB4 (acute promyelocytic leukemia, AML), Kasumi-1 (acute myeloid leukemia M2 type, AML-M2), Jurkat (acute lymphoblastic leukemia, ALL), all of which were donated by Cancer Research Institute of Zhejiang University, China; and H9 (acute lymphoblastic leukemia, ALL), which was purchased from China Center for Type Culture Collection.
as §1, with “6000 well-growing leukemia cells were” for “6000 well-growing cells were”, “C. and was incubated for” for “C. and incubated for”

Row | IC50 [µg/mL] | IC90 [µg/mL] | Compound
2 | 0.35 (≈ 0.531 µM) | 1.66 (≈ 2.52 µM) | C=C1C(=O)[C@]23[C@H](OC(=O)C4CCN(S(=O)(=O)c5cccc([N+](=O)[O-])c5)CC4)[C@H]1CC[C@H]2[C@@]12CO[C@@]3(O)[C@@H](O)[C@@H]1C(C)(C)CCC2=O [BS-OR-037]

What follows are compounds tested on H9 (assay: Leukemia cell growth inhibition, MTT, 72 h). Details: Homo sapiens, H9; 72 h, MTT.
Type: cell-based, human
From the text: as §2
as §1, with “6000 well-growing leukemia cells were” for “6000 well-growing cells were”, “C. and was incubated for” for “C. and incubated for”

Row | IC50 [µg/mL] | IC90 [µg/mL] | Compound
3 | 1.64 (≈ 2.49 µM) | 3.46 (≈ 5.25 µM) | C=C1C(=O)[C@]23[C@H](OC(=O)C4CCN(S(=O)(=O)c5cccc([N+](=O)[O-])c5)CC4)[C@H]1CC[C@H]2[C@@]12CO[C@@]3(O)[C@@H](O)[C@@H]1C(C)(C)CCC2=O [BS-OR-037]

These compounds were tested on Jurkat (assay: Leukemia cell growth inhibition, MTT, 72 h). Details: Homo sapiens, Jurkat; 72 h, MTT.
Type: cell-based, human
From the text: as §2
as §1, with “6000 well-growing leukemia cells were” for “6000 well-growing cells were”, “C. and was incubated for” for “C. and incubated for”

Row | IC50 [µg/mL] | IC90 [µg/mL] | Compound
4 | 1.16 (≈ 1.76 µM) | 4.4 (≈ 6.68 µM) | C=C1C(=O)[C@]23[C@H](OC(=O)C4CCN(S(=O)(=O)c5cccc([N+](=O)[O-])c5)CC4)[C@H]1CC[C@H]2[C@@]12CO[C@@]3(O)[C@@H](O)[C@@H]1C(C)(C)CCC2=O [BS-OR-037]

The compounds below were run on MGC-803 (assay: Solid tumor cell growth inhibition, MTT, 72 h). Details: Homo sapiens, MGC-803; 72 h, MTT.
Type: cell-based, human
Description: (§3) 6000 well-growing human solid tumor cells were obtained and inoculated into wells of a 96-well cell culture plate. The culture medium was DMEM High Glucose cell culture medium containing 10% fetal bovine serum. The plate was placed in a carbon dioxide cell incubator (5% CO2) at 37° C. and incubated for 24 hours. After added with 1-oxo/acylated-14-acylated oridonin derivatives of different concentration and mixed uniformly, the plate was placed in a carbon dioxide cell incubator (5% CO2) at 37° C. and incubated for 72 hours. Then the viable cell concentration was determined by MTT method.

Row | IC50 [µg/mL] | IC90 [µg/mL] | Compound
5 | 3.18 (≈ 4.83 µM) | 6.35 (≈ 9.64 µM) | C=C1C(=O)[C@]23[C@H](OC(=O)C4CCN(S(=O)(=O)c5cccc([N+](=O)[O-])c5)CC4)[C@H]1CC[C@H]2[C@@]12CO[C@@]3(O)[C@@H](O)[C@@H]1C(C)(C)CCC2=O [BS-OR-037]

The compounds below were run on Hep-2 (assay: Solid tumor cell growth inhibition, MTT, 72 h). Details: Homo sapiens, HEp-2; 72 h, MTT.
Type: cell-based, human
Description: as §3

Row | IC50 [µg/mL] | IC90 [µg/mL] | Compound
6 | 3.58 (≈ 5.43 µM) | 15.3 (≈ 23.2 µM) | C=C1C(=O)[C@]23[C@H](OC(=O)C4CCN(S(=O)(=O)c5cccc([N+](=O)[O-])c5)CC4)[C@H]1CC[C@H]2[C@@]12CO[C@@]3(O)[C@@H](O)[C@@H]1C(C)(C)CCC2=O [BS-OR-037]

These compounds were tested on Hela (assay: Solid tumor cell growth inhibition, MTT, 72 h). Details: Homo sapiens, HeLa; 72 h, MTT.
Type: cell-based, human
Description: as §3

Row | IC50 [µg/mL] | IC90 [µg/mL] | Compound
7 | 3.41 (≈ 5.18 µM) | 10.1 (≈ 15.3 µM) | C=C1C(=O)[C@]23[C@H](OC(=O)C4CCN(S(=O)(=O)c5cccc([N+](=O)[O-])c5)CC4)[C@H]1CC[C@H]2[C@@]12CO[C@@]3(O)[C@@H](O)[C@@H]1C(C)(C)CCC2=O [BS-OR-037]

These compounds were tested on CNE (assay: Solid tumor cell growth inhibition, MTT, 72 h). Details: Homo sapiens, CNE; 72 h, MTT.
Type: cell-based, human
Description: as §3

Row | IC50 [µg/mL] | IC90 [µg/mL] | Compound
8 | 2.95 (≈ 4.48 µM) | 8.76 (≈ 13.3 µM) | C=C1C(=O)[C@]23[C@H](OC(=O)C4CCN(S(=O)(=O)c5cccc([N+](=O)[O-])c5)CC4)[C@H]1CC[C@H]2[C@@]12CO[C@@]3(O)[C@@H](O)[C@@H]1C(C)(C)CCC2=O [BS-OR-037]

These compounds were tested on MG-63 (assay: Solid tumor cell growth inhibition, MTT, 72 h). Details: Homo sapiens.
Type: cell-based
Description: as §3

Row | IC50 [µg/mL] | IC90 [µg/mL] | Compound
9 | 1.2 (≈ 1.82 µM) | 3.1 (≈ 4.71 µM) | C=C1C(=O)[C@]23[C@H](OC(=O)C4CCN(S(=O)(=O)c5cccc([N+](=O)[O-])c5)CC4)[C@H]1CC[C@H]2[C@@]12CO[C@@]3(O)[C@@H](O)[C@@H]1C(C)(C)CCC2=O [BS-OR-037]

These compounds were tested on PANC-1 (assay: Solid tumor cell growth inhibition, MTT, 72 h). Details: Homo sapiens.
Type: cell-based
Description: as §3

Row | IC50 [µg/mL] | IC90 [µg/mL] | Compound
10 | 4.98 (≈ 7.56 µM) | 11.1 (≈ 16.8 µM) | C=C1C(=O)[C@]23[C@H](OC(=O)C4CCN(S(=O)(=O)c5cccc([N+](=O)[O-])c5)CC4)[C@H]1CC[C@H]2[C@@]12CO[C@@]3(O)[C@@H](O)[C@@H]1C(C)(C)CCC2=O [BS-OR-037]

What follows are compounds tested on U87-MG (assay: Solid tumor cell growth inhibition, MTT, 72 h). Details: Homo sapiens, U-87 MG.
Type: cell-based
Description: as §3

Row | IC50 [µg/mL] | IC90 [µg/mL] | Compound
11 | 1.86 (≈ 2.82 µM) | 4.68 (≈ 7.1 µM) | C=C1C(=O)[C@]23[C@H](OC(=O)C4CCN(S(=O)(=O)c5cccc([N+](=O)[O-])c5)CC4)[C@H]1CC[C@H]2[C@@]12CO[C@@]3(O)[C@@H](O)[C@@H]1C(C)(C)CCC2=O [BS-OR-037]

These compounds were tested on PC-3 (assay: Solid tumor cell growth inhibition, MTT, 72 h). Details: Homo sapiens.
Type: cell-based
Description: as §3

Row | IC50 [µg/mL] | IC90 [µg/mL] | Compound
12 | 3.48 (≈ 5.28 µM) | 7.08 (≈ 10.7 µM) | C=C1C(=O)[C@]23[C@H](OC(=O)C4CCN(S(=O)(=O)c5cccc([N+](=O)[O-])c5)CC4)[C@H]1CC[C@H]2[C@@]12CO[C@@]3(O)[C@@H](O)[C@@H]1C(C)(C)CCC2=O [BS-OR-037]

These compounds were tested on Hep G2 (assay: Solid tumor cell growth inhibition, MTT, 72 h). Details: Homo sapiens, HepG2.
Type: cell-based
Description: as §3

Row | IC50 [µg/mL] | IC90 [µg/mL] | Compound
13 | 3.33 (≈ 5.06 µM) | > 16 | C=C1C(=O)[C@]23[C@H](OC(=O)C4CCN(S(=O)(=O)c5cccc([N+](=O)[O-])c5)CC4)[C@H]1CC[C@H]2[C@@]12CO[C@@]3(O)[C@@H](O)[C@@H]1C(C)(C)CCC2=O [BS-OR-037]

What follows are compounds tested on CaEs-17 (assay: Solid tumor cell growth inhibition, MTT, 72 h). Details: Homo sapiens, CaEs17.
Type: cell-based
Description: as §3

Row | IC50 [µg/mL] | IC90 [µg/mL] | Compound
14 | 3.07 (≈ 4.66 µM) | 11.2 (≈ 16.9 µM) | C=C1C(=O)[C@]23[C@H](OC(=O)C4CCN(S(=O)(=O)c5cccc([N+](=O)[O-])c5)CC4)[C@H]1CC[C@H]2[C@@]12CO[C@@]3(O)[C@@H](O)[C@@H]1C(C)(C)CCC2=O [BS-OR-037]

The compounds below were run on RKO (assay: Solid tumor cell growth inhibition, MTT, 72 h). Details: Homo sapiens.
Type: cell-based
Description: as §3

Row | IC50 [µg/mL] | IC90 [µg/mL] | Compound
15 | 0.91 (≈ 1.38 µM) | 1.84 (≈ 2.79 µM) | C=C1C(=O)[C@]23[C@H](OC(=O)C4CCN(S(=O)(=O)c5cccc([N+](=O)[O-])c5)CC4)[C@H]1CC[C@H]2[C@@]12CO[C@@]3(O)[C@@H](O)[C@@H]1C(C)(C)CCC2=O [BS-OR-037]

The compounds below were run on A549 (assay: Solid tumor cell growth inhibition, MTT, 72 h). Details: Homo sapiens.
Type: cell-based
Description: as §3

Row | IC50 [µg/mL] | IC90 [µg/mL] | Compound
16 | 5.72 (≈ 8.68 µM) | 10.1 (≈ 15.4 µM) | C=C1C(=O)[C@]23[C@H](OC(=O)C4CCN(S(=O)(=O)c5cccc([N+](=O)[O-])c5)CC4)[C@H]1CC[C@H]2[C@@]12CO[C@@]3(O)[C@@H](O)[C@@H]1C(C)(C)CCC2=O [BS-OR-037]

Each compound was assayed on SK-OV-3 (assay: Solid tumor cell growth inhibition, MTT, 72 h). Details: Homo sapiens, SK-OV-3; 72 h, MTT; read-out: IC50 SK-OV-3.
Type: cell-based
Description: as §3

Row | IC50 [µg/mL] | Compound
17 | 3.48 (≈ 5.28 µM) | C=C1C(=O)[C@]23[C@H](OC(=O)C4CCN(S(=O)(=O)c5cccc([N+](=O)[O-])c5)CC4)[C@H]1CC[C@H]2[C@@]12CO[C@@]3(O)[C@@H](O)[C@@H]1C(C)(C)CCC2=O [BS-OR-037]

Same assay, conditions: Homo sapiens, SK-OV-3; 72 h, MTT; read-out: IC90 SK-OV-3

Row | IC90 [µg/mL] | Compound
18 | 7.08 (≈ 10.7 µM) | C=C1C(=O)[C@]23[C@H](OC(=O)C4CCN(S(=O)(=O)c5cccc([N+](=O)[O-])c5)CC4)[C@H]1CC[C@H]2[C@@]12CO[C@@]3(O)[C@@H](O)[C@@H]1C(C)(C)CCC2=O [BS-OR-037]

Each compound was assayed on Becap-37 (assay: Solid tumor cell growth inhibition, MTT, 72 h). Details: Homo sapiens.
Type: cell-based
Description: as §3

Row | IC50 [µg/mL] | IC90 [µg/mL] | Compound
19 | 2.75 (≈ 4.17 µM) | 7.47 (≈ 11.3 µM) | C=C1C(=O)[C@]23[C@H](OC(=O)C4CCN(S(=O)(=O)c5cccc([N+](=O)[O-])c5)CC4)[C@H]1CC[C@H]2[C@@]12CO[C@@]3(O)[C@@H](O)[C@@H]1C(C)(C)CCC2=O [BS-OR-037]

The compounds below were run on K562/ADR (assay: Leukemia cell growth inhibition, MTT, 72 h). Details: Homo sapiens.
Type: cell-based
From the text: as §2
as §1, with “6000 well-growing leukemia cells were” for “6000 well-growing cells were”, “C. and was incubated for” for “C. and incubated for”

Row | IC50 [µg/mL] | IC90 [µg/mL] | Compound
20 | 1.32 (≈ 2 µM) | 3.6 (≈ 5.47 µM) | C=C1C(=O)[C@]23[C@H](OC(=O)C4CCN(S(=O)(=O)c5cccc([N+](=O)[O-])c5)CC4)[C@H]1CC[C@H]2[C@@]12CO[C@@]3(O)[C@@H](O)[C@@H]1C(C)(C)CCC2=O [BS-OR-037]

Each compound was assayed on Kasumi-1 (assay: Leukemia cell growth inhibition, MTT, 72 h). Details: Homo sapiens.
Type: cell-based
From the text: as §2
as §1, with “6000 well-growing leukemia cells were” for “6000 well-growing cells were”, “C. and was incubated for” for “C. and incubated for”

Row | IC50 [µg/mL] | IC90 [µg/mL] | Compound
21 | 1.41 (≈ 2.14 µM) | 3.19 (≈ 4.84 µM) | C=C1C(=O)[C@]23[C@H](OC(=O)C4CCN(S(=O)(=O)c5cccc([N+](=O)[O-])c5)CC4)[C@H]1CC[C@H]2[C@@]12CO[C@@]3(O)[C@@H](O)[C@@H]1C(C)(C)CCC2=O [BS-OR-037]
